Results taken from PubChem BioAssay (NCI).
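Compound exposure: 48 hours, 5 concentrations, 96-well plates. GI50 marks 50% less growth. TGI: total growth inhibition.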

Key:
Assay in all cases: NCI anticancer screen, dose series, 48 h
SK-MEL-5 melanoma = test system: SK-MEL-5 melanoma
KM12 colon = test system: KM12 colon
OVCAR-5 ovarian = test system: OVCAR-5 ovarian
SNB-75 CNS = test system: SNB-75 CNS
M14 melanoma = test system: M14 melanoma
MDA-MB-435 = test system: MDA-MB-435
OVCAR-4 ovarian = test system: OVCAR-4 ovarian
MCF7 breast = test system: MCF7 breast
RXF 393 renal = test system: RXF 393 renal
HCC-2998 colon = test system: HCC-2998 colon

| SMILES | TGI (SK-MEL-5 melanoma) [µM] | TGI (KM12 colon) [µM] | TGI (OVCAR-5 ovarian) [µM] | TGI (SNB-75 CNS) [µM] | TGI (M14 melanoma) [µM] | TGI (MDA-MB-435) [µM] | TGI (OVCAR-4 ovarian) [µM] | TGI (MCF7 breast) [µM] | TGI (RXF 393 renal) [µM] | TGI (HCC-2998 colon) [µM] | GI50 (SK-MEL-5 melanoma) [µM] | GI50 (KM12 colon) [µM] | GI50 (OVCAR-5 ovarian) [µM] | GI50 (SNB-75 CNS) [µM] | GI50 (MDA-MB-435) [µM] | GI50 (OVCAR-4 ovarian) [µM] | GI50 (MCF7 breast) [µM] | GI50 (RXF 393 renal) [µM] |
| --- | --- | --- | --- | --- | --- | --- | --- | --- | --- | --- | --- | --- | --- | --- | --- | --- | --- | --- |
| CC(C)(C)c1cc(C(C)(C)C)c2sc(=O)oc2c1O | 27.9 | 27.9 | 33.4 | 27.1 | 31.6 | 25.6 | 27.6 | 28 | 26.3 |  |  |  |  |  |  |  |  |  |
| O=C(c1ccccc1)C1C(c2ccccc2[N+](=O)[O-])N1C1CCCCC1 (stereo unspecified) | 24.4 | 25.2 | 36.9 |  | 23.9 | 10.8 | 22.7 | 15.9 | 17 | 18 |  |  |  |  |  |  |  |  |
| COc1cc(CNc2nc3c(NC(C)=O)cc(C(F)(F)F)cc3nc2-c2ccccc2)cc(OC)c1OC | > 100 | > 100 | > 100 |  |  |  | > 100 |  | > 100 | > 100 |  |  |  |  |  |  |  |  |
| CCOC(=O)NC(Nc1ccc(C(=O)O)cc1)(C(F)(F)F)C(F)(F)F | > 100 | > 100 | > 100 | > 100 | > 100 | > 100 |  | > 100 | > 100 | > 100 |  |  |  |  |  |  |  |  |
| N#Cc1nc(-c2ccsc2)oc1N | > 100 | > 100 | > 100 | > 100 | > 100 | > 100 |  | > 100 | > 100 |  |  |  |  |  |  |  |  |  |
| Nc1ncnc2c1ncn2C1C(O)C=C(CO)C1O (stereo unspecified) | > 625 | > 625 |  |  |  |  | > 625 | > 625 |  | > 625 |  |  |  |  |  |  |  |  |
| CCOC(=O)CCC(C(=O)OCC)n1nnc2cc(Nc3c(C)[n+]([O-])c4cc(Cl)ccc4[n+]3[O-])ccc21 (stereo unspecified) | > 100 | > 100 | > 100 | > 100 | > 100 | > 100 | > 100 | 80 | > 100 |  |  |  |  |  |  |  |  |  |
| O=C(CN1CCCC1)Nc1ccc2c(c1)C1Oc3ccccc3CC1CO2 (stereo unspecified) | 28.2 | > 100 | 93.4 |  | 36.4 | 55.4 |  | 32.4 |  | 34.9 |  |  |  |  |  |  |  |  |
| C=C(C)C1CCC2(C)C1CCC1(C)C2CCC2C3(C)C4OC(OC4=O)C(C)(C)C3CCC21C (stereo unspecified) | > 100 | > 100 | > 100 | > 100 | > 100 | > 100 |  | > 100 | > 100 | > 100 |  |  |  |  |  |  |  |  |
| Oc1ccccc1/C=N/c1nc(-c2ccccc2)cs1 | > 100 | > 100 | > 100 | > 100 |  | > 100 | > 100 | 40.8 | 32.6 |  | 47.6 | 51 | 32.2 | > 100 | 29.7 | 33.7 | 14.1 | 10.4 |
| O=c1[nH]c(NCCCCCO)nc2nc[nH]c12 | > 100 | > 100 | > 100 | > 100 | > 100 | > 100 | > 100 |  |  | > 100 |  |  |  |  |  |  |  |  |
| O=[N+]([O-])/C=C/c1cn(CCCCCCCCn2cc(/C=C/[N+](=O)[O-])c3ccccc32)c2ccccc12 | > 10 | > 10 | > 10 | > 10 | > 10 | > 10 | > 10 |  | > 10 | > 10 |  |  |  |  |  |  |  |  |
| CC1CC(C)(C)CC(OCCN2CCCCC2)(c2ccccc2)C1 (stereo unspecified) | 22.9 | 21.4 | 18.2 | 28.8 | 14.4 | 24.7 | 24 | 26.4 | 23.8 |  |  |  |  |  |  |  |  |  |
| O=c1ccc(=O)c2c1c1[nH]c3ccccc3c1c1c(=O)c3ccccc3c(=O)c21 | > 10 | > 10 | > 10 | > 10 | > 10 | > 10 | > 10 |  | > 10 | > 10 |  |  |  |  |  |  |  |  |
| CCCCCCCCCCCCCCCCOC[C@H](COC(c1ccccc1)(c1ccccc1)c1ccccc1)O[P+](=S)OC (stereo partly specified) | > 100 | > 100 | > 100 | > 100 | > 100 | > 100 |  | > 100 | > 100 |  |  |  |  |  |  |  |  |  |
| CN=C1C=C(/N=C2/C=C(N/C(=C\C#N)C(C)(C)O)OC2(C)C)OC1(C)C | > 85.7 | > 100 | > 100 | > 64 | > 78.4 | > 100 | > 100 | > 100 |  | > 100 |  |  |  |  |  |  |  |  |
| Cc1cc(Br)c(O)c(-c2cscn2)c1 | 30.5 |  | 36.4 |  | 44 | 41.9 | 28.7 |  |  | 36.2 |  |  |  |  |  |  |  |  |
| O=C(Nc1nnc(-c2ccccc2)o1)C(SC(=S)N1CCCC1)c1ccccc1 (stereo unspecified) | 38.2 | > 100 | > 100 | > 100 | > 100 | > 100 | > 100 | > 100 | > 100 |  |  |  |  |  |  |  |  |  |
| N#CC(c1cc(Cl)ncn1)c1nc2cc(C(F)(F)F)ccc2s1 (stereo unspecified) | 26.2 | 18.7 | 34.3 | 25.4 | 18.7 | > 100 | 19.5 |  | 19.7 |  |  |  |  |  |  |  |  |  |
| Cc1cc(C)n(C(C)(C(=O)Cc2ccccc2)n2nc(C)cc2C)n1 | > 100 | > 100 | > 100 |  | > 100 | > 100 | > 100 | > 100 | > 100 | > 100 |  |  |  |  |  |  |  |  |
| COc1ccc(Nc2nc(N)c(C(=O)c3ccco3)s2)cc1 | 99.7 | > 100 | > 100 |  | > 100 | 16.9 | > 89.9 | > 100 | > 77.6 | 71.9 |  |  |  |  |  |  |  |  |
| COc1cc2c(cc1OCCN1CCN(CCOc3cc4c(cc3OC)C(=O)N3CCC[C@H]3C=N4)CC1)N=C[C@@H]1CCCN1C2=O | 48.9 | > 75.3 | 63.7 | > 100 | > 83.6 | 64.2 | > 100 | > 100 | 56.3 |  |  |  |  |  |  |  |  |  |
| CC1(O)CC23CC(O)C4(O)C(CC(O)C4(C)C)C(C)(O)C2CCC1C3O (stereo unspecified) | > 100 | > 100 | > 100 |  | > 100 | > 100 | > 100 | > 100 |  | > 100 |  |  |  |  |  |  |  |  |
| COC1=C(OC)C(=O)C(Cc2c(-c3ccccc3)nc3sc(Cl)cn23)=C(C)C1=O | 29.2 | 41 | 56.5 |  | 33.7 | 33.1 | 18.8 | 52.4 | 33.3 | 46.6 |  |  |  |  |  |  |  |  |
